The values that follow are results of earlier work, collected in patent US11526092B2, “Electrophotographic photoreceptor, process cartridge, and image forming apparatus” (FUJIFILM Business Innovation Corp., priority 2019, dated 2022).

For this data set the following is noted: in water at 25° C.; first acid dissociation constant (pKa1).

Regarding `CCCCCCCCCCCCc1ccc(S(=O)(=O)O)cc1` [DBS, dodecylbenzenesulfonic acid], the “Acidic compound pKa” value is given as −2.
